Reference: ChEMBL document CHEMBL4033703, “Novel delta opioid receptor agonists with oxazatricyclodecane structure showing potent agonistic activities” (Bioorg Med Chem Lett, 2017)

What was measured:
[1] = molecular target: Delta-type opioid receptor (Mus musculus, UniProt P32300); test: Displacement of [3H]DPDPE from delta opioid receptor in mouse whole brain without cerebellum membrane
Mu-type opioid receptor [2] = molecular target: Mu-type opioid receptor (Mus musculus, UniProt P42866); test: Displacement of [3H]DAMGO from mu opioid receptor in mouse whole brain without cerebellum membrane
Mu-type opioid receptor [3] = molecular target: T1, Mu-type opioid receptor (Homo sapiens, UniProt P35372); test: Displacement of [3H]DAMGO from human mu opioid receptor expressed in CHO cells; type: cell-based
[4] = Selectivity ratio of Ki for kappa opioid receptor in guinea pig cerebellum membrane to Ki for delta opioid receptor in mouse whole brain without cerebellum; type: cell membranes
Mus musculus = species on record: Mus musculus; test: Selectivity ratio of Ki for mu opioid receptor in mouse whole brain without cerebellum to Ki for delta opioid receptor in mouse whole brain without cerebellum
[5] = molecular target: Kappa-type opioid receptor (Cavia porcellus, UniProt P41144); test: Displacement of [3H]U-69,593 from kappa opioid receptor in guinea pig cerebellum membrane; type: cell membranes
[6] = molecular target: T2, Delta-type opioid receptor (Homo sapiens, UniProt P41143); test: Displacement of [3H]DPDPE from human delta opioid receptor expressed in CHO cells; type: cell-based
[7] = molecular target: T3, Kappa-type opioid receptor (Homo sapiens, UniProt P41145); test: Displacement of [3H]U-69,593 from human kappa opioid receptor expressed in CHO cells; type: cell-based
[8] = molecular target: T2, Delta-type opioid receptor; test: Agonist activity at human delta opioid receptor expressed in CHO cells assessed as inhibition of forskolin-induced cAMP accumulation after 30 mins by Eu-cAMP tracer based TR-FRET assay; type: functional, cell-based
Mu-type opioid receptor [9] = molecular target: T1, Mu-type opioid receptor; test: Agonist activity at human mu opioid receptor expressed in CHO cells assessed as inhibition of forskolin-induced cAMP accumulation at 10 uM after 30 mins by Eu-cAMP tracer based TR-FRET assay relative to DAMGO; type: functional, cell-based
[10] = molecular target: T2, Delta-type opioid receptor; test: Agonist activity at human delta opioid receptor expressed in CHO cells assessed as inhibition of forskolin-induced cAMP accumulation after 30 mins by Eu-cAMP tracer based TR-FRET assay relative to SNC80; type: functional, cell-based
[11] = molecular target: T3, Kappa-type opioid receptor; test: Agonist activity at human kappa opioid receptor expressed in CHO cells assessed as inhibition of forskolin-induced cAMP accumulation at 10 uM after 30 mins by Eu-cAMP tracer based TR-FRET assay relative to U-69,593; type: functional, cell-based
[12] = molecular target: T3, Kappa-type opioid receptor; test: Agonist activity at human kappa opioid receptor expressed in CHO cells assessed as inhibition of forskolin-induced cAMP accumulation after 30 mins by Eu-cAMP tracer based TR-FRET assay; type: functional, cell-based
[13] = molecular target: T3, Kappa-type opioid receptor; test: Agonist activity at human kappa opioid receptor expressed in CHO cells assessed as inhibition of forskolin-induced cAMP accumulation after 30 mins by Eu-cAMP tracer based TR-FRET assay relative to U-69,593; type: functional, cell-based
Mu-type opioid receptor [14] = molecular target: T1, Mu-type opioid receptor; test: Agonist activity at human mu opioid receptor expressed in CHO cells assessed as inhibition of forskolin-induced cAMP accumulation after 30 mins by Eu-cAMP tracer based TR-FRET assay; type: functional, cell-based
Mu-type opioid receptor [15] = molecular target: T1, Mu-type opioid receptor; test: Agonist activity at human mu opioid receptor expressed in CHO cells assessed as inhibition of forskolin-induced cAMP accumulation after 30 mins by Eu-cAMP tracer based TR-FRET assay relative to DAMGO; type: functional, cell-based

Chain of Delta-type opioid receptor (Mus musculus, UniProt P32300) (P32300 whole entry): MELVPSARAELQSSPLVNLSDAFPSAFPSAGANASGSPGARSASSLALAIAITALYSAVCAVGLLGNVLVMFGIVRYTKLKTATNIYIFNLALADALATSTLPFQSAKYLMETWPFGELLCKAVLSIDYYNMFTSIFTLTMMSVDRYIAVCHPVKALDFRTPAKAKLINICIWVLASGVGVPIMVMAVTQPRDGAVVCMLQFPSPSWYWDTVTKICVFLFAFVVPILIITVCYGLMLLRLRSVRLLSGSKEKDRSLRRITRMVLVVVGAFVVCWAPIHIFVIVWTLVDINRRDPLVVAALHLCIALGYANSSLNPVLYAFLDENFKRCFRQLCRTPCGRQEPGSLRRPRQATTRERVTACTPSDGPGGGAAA
Chain of Kappa-type opioid receptor (Cavia porcellus, UniProt P41144) (P41144 whole entry): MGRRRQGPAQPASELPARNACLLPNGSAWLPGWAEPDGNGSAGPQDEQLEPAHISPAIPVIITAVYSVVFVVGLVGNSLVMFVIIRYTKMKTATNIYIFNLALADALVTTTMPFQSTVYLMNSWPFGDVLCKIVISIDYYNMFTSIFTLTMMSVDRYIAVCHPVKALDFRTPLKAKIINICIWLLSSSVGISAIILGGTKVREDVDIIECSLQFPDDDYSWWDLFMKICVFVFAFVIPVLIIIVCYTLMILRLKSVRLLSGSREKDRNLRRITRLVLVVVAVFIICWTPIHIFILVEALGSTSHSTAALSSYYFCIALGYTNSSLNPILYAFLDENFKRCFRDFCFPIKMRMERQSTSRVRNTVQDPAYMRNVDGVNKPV
Chain of Mu-type opioid receptor (Mus musculus, UniProt P42866) (P42866 whole entry): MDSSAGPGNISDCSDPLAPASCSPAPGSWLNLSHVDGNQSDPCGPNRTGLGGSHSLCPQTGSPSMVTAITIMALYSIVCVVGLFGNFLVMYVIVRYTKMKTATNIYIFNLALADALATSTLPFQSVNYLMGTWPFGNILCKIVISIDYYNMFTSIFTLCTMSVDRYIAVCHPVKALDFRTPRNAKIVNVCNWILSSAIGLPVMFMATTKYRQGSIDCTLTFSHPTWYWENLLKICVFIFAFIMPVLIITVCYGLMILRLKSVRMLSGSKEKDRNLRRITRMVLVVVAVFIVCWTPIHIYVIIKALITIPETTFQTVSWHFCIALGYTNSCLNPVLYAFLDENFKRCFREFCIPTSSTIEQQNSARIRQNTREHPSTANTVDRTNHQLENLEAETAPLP
T3 sequence (P41145 whole entry): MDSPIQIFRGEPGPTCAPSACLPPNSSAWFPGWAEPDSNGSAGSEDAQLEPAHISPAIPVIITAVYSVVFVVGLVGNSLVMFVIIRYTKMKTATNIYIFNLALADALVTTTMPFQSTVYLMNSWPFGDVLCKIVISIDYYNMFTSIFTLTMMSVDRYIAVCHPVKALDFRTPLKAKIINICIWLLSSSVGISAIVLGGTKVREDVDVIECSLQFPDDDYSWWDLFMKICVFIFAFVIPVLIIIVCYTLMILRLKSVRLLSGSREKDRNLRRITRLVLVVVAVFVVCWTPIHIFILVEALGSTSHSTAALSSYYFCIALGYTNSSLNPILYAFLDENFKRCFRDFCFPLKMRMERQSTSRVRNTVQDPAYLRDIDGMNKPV
T1 sequence (P35372 whole entry): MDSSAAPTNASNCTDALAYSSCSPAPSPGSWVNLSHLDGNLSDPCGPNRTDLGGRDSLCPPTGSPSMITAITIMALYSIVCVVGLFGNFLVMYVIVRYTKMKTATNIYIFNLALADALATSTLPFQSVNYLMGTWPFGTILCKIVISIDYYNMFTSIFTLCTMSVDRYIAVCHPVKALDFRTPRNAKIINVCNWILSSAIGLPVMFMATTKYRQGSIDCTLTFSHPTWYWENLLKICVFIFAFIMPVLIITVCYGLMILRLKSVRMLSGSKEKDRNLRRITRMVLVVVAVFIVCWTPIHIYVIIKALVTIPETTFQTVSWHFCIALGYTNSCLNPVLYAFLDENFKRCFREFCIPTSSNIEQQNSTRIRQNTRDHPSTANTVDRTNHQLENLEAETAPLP
T2 sequence (P41143 whole entry): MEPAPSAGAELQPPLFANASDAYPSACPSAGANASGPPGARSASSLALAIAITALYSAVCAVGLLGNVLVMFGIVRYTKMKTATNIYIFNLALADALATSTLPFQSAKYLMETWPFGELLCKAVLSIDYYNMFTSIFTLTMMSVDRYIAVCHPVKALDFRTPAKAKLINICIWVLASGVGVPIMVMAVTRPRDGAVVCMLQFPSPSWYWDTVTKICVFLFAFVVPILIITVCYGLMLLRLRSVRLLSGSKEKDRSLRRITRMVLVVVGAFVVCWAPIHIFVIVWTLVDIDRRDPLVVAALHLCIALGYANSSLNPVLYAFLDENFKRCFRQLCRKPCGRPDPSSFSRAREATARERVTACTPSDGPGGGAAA

| Compound | Ki [1] [nM] | Ki (Mu-type opioid receptor [2]) [nM] | Ki (Mu-type opioid receptor [3]) [nM] | Ratio Ki [4] | Ratio Ki (Mus musculus) | Ki [5] [nM] | Ki [6] [nM] | Ki [7] [nM] | EC50 [8] [nM] | Emax (Mu-type opioid receptor [9]) [%] | Emax [10] [%] | Emax [11] [%] | EC50 [12] [nM] | Emax [13] [%] | EC50 (Mu-type opioid receptor [14]) [nM] | Emax (Mu-type opioid receptor [15]) [%] | ED50 [8] [nM] |
| --- | --- | --- | --- | --- | --- | --- | --- | --- | --- | --- | --- | --- | --- | --- | --- | --- | --- |
| O=C(c1ccccc1)N1C[C@H]2OC34CCC1C2C31CCN(CC2CC2)C4Cc2ccc(O)cc21 (some centres not stated) | 0.274 | 0.325 | 0.627 | 4.4 | 1.2 | 1.21 | 0.154 | 1.05 | 0.54 | 3.9 | 96 | 2.9 |  |  |  |  |  |
| CC(C)CN1CCC23c4cc(O)ccc4CC1C21CCC2C3[C@@H](CN2C(=O)c2ccccc2)O1 (some centres not stated) | 0.76 | 4.48 |  | 8.2 | 5.9 | 6.25 |  |  | 3 | 15 | 99 |  | 98 | 19 |  |  |  |
| COCCCN1CCC23c4cc(O)ccc4CC1C21CCC2C3[C@@H](CN2C(=O)c2ccccc2)O1 (some centres not stated) | 0.368 | 3.94 |  | 55 | 11 | 20.3 |  |  | 1.4 |  | 120 | 23 |  |  | 22 | 55 |  |
| CN1CCC23c4cc(O)ccc4CC1C21CCC2C3[C@@H](CN2C(=O)c2ccccc2)O1 (some centres not stated) | 0.301 | 0.383 |  | 104 | 1.3 | 31.3 |  |  | 0.43 |  | 94 |  | 50 | 96 | 5.9 | 103 |  |
| O=C(c1ccccc1)N1C[C@H]2OC34CCC1C2C31CCN(CCc2ccccc2)C4Cc2ccc(O)cc21 (some centres not stated) | 0.458 | 0.548 |  | 74 | 1.2 | 34.1 |  |  | 0.61 |  | 100 |  | 404 | 56 | 5.3 | 109 |  |
| O=S(=O)(c1ccccc1)N1C[C@H]2OC34CCC1C2C31CCN(CC2CC2)C4Cc2ccc(O)cc21 (some centres not stated) |  |  | 0.308 |  |  |  | 0.221 | 0.658 | 1.2 |  | 66 | 19 |  |  | 2.5 | 54 |  |
| C=CCN1CCC23c4cc(O)ccc4CC1C21CCC2C3[C@@H](CN2C(=O)c2ccccc2)O1 (some centres not stated) | 0.109 | 0.833 |  | 23 | 7.6 | 2.54 |  |  | 0.43 | 2.2 | 73 | 4.2 |  |  |  |  |  |
| Oc1ccc2c(c1)C13CCN(CC4CC4)C(C2)C12CCC1C3[C@@H](CN1Cc1ccccc1)O2 (some centres not stated) |  |  | 1.56 |  |  |  | 0.501 | 1.38 | 0.67 | 4.2 | 79 | 12 |  |  |  |  |  |
| COCCCN1CC[C@]23Cc4nc5ccccc5cc4C[C@@]2(O)[C@H]1Cc1ccc(O)cc13 |  |  |  |  |  |  |  |  |  | 25 | 95 | 14 |  |  |  |  | 0.46 |
